Organism: Rattus norvegicus
Experiment: Open TG-GATES - Regimen: Single
Type: toxicity, organism-based, Sprague-Dawley
Set-up: regimen Single, gender Male, age 6 weeks
Settings: in vivo, po, 120 mg/kg, route gavage, dose level Middle; for APTT / Bas / Eos / Fbg / Hb / Ht / Lym / MCH / MCHC / MCV / Mono / Neu / PT / Plat / RBC / Ret / WBC: tissue Blood; for KIDNEY_L / KIDNEY_R / KIDNEY_TOTAL: tissue Kidney; for LIVER: tissue Liver; for A/G / ALP / ALT / AST / BUN / CRE / Ca / Cl / DBIL / GLC / IP / K / LDH / Na / PL / RALB / TBIL / TC / TG / TP / gamma-GTP: tissue Plasma

Molecule `COc1ccc(Cc2nccc3cc(OC)c(OC)cc23)cc1OC` [PAPAVERINE] has a TERMINAL_BW (3 h) of 221.6 g, an APTT (3 h) of 22.7 s and a Bas (3 h) of 0%. It also gave an Eos (3 h) of 1%, a Fbg (3 h) of 312.8 mg/dL and a Hb (3 h) of 13.4 g/dL. For the same molecule, the Ht (3 h) was 40.5%, the Lym (3 h) was 77.6% and the MCH (3 h) was 20.9 pg. The MCHC (3 h) was 33.2%, the MCV (3 h) was 63 fL and the Mono (3 h) was 2.4%. It also gave a Neu (3 h) of 17.8%, a PT (3 h) of 15.9 s and a Plat (3 h) of 108.5 x10_4/uL. For the same molecule, the RBC (3 h) was 641.8 x10_4/ul, the Ret (3 h) was 7.3% and the WBC (3 h) was 88.5 x10_2/uL. It also gave a KIDNEY_L (3 h) of 0.9 g, a KIDNEY_R (3 h) of 1 g and a KIDNEY_TOTAL (3 h) of 1.9 g. For the same molecule, the LIVER (3 h) was 9.5 g, the A/G (3 h) was 1.2 and the ALP (3 h) was 1542 IU/L. It also gave an ALT (3 h) of 43.6 IU/L, an AST (3 h) of 78.6 IU/L and a BUN (3 h) of 11.4 mg/dL. The CRE (3 h) was 0.1 mg/dL, the Ca (3 h) was 11 mg/dL and the Cl (3 h) was 107.8 meq/L. It also gave a DBIL (3 h) of 0 mg/dL, a GLC (3 h) of 181.4 mg/dL and an IP (3 h) of 8.7 mg/dL. It also gave a K (3 h) of 4 meq/L, an LDH (3 h) of 162.8 IU/L and a Na (3 h) of 141.8 meq/L. It also gave a PL (3 h) of 128.4 mg/dL, an RALB (3 h) of 2.9 g/dL and a TBIL (3 h) of 0.008 mg/dL. The TC (3 h) was 74.6 mg/dL, the TG (3 h) was 43.8 mg/dL and the TP (3 h) was 5.3 g/dL. The gamma-GTP (3 h) was 2 IU/L, the TERMINAL_BW (6 h) was 219.8 g and the APTT (6 h) was 20.9 s. The Bas (6 h) was 0%, the Eos (6 h) was 0.8% and the Fbg (6 h) was 317.8 mg/dL. It also gave a Hb (6 h) of 13 g/dL, a Ht (6 h) of 39.5% and a Lym (6 h) of 80.2%. The MCH (6 h) was 20.9 pg, the MCHC (6 h) was 32.9% and the MCV (6 h) was 63.7 fL. For the same molecule, the Mono (6 h) was 2.8%, the Neu (6 h) was 14.6% and the PT (6 h) was 15.8 s. It also gave a Plat (6 h) of 131.3 x10_4/uL, an RBC (6 h) of 622.4 x10_4/ul and a Ret (6 h) of 8.7%. The WBC (6 h) was 116 x10_2/uL, the KIDNEY_L (6 h) was 1 g and the KIDNEY_R (6 h) was 1 g. The KIDNEY_TOTAL (6 h) was 1.9 g, the LIVER (6 h) was 9.5 g and the A/G (6 h) was 1.3. For the same molecule, the ALP (6 h) was 1418.8 IU/L, the ALT (6 h) was 36.6 IU/L and the AST (6 h) was 71.6 IU/L. The BUN (6 h) was 11.2 mg/dL, the CRE (6 h) was 0.2 mg/dL and the Ca (6 h) was 11.4 mg/dL. The Cl (6 h) was 107.2 meq/L, the DBIL (6 h) was 0 mg/dL and the GLC (6 h) was 181 mg/dL. The IP (6 h) was 9.4 mg/dL, the K (6 h) was 4.3 meq/L and the LDH (6 h) was 166.2 IU/L. For the same molecule, the Na (6 h) was 140.4 meq/L, the PL (6 h) was 137.4 mg/dL and the RALB (6 h) was 3.1 g/dL. It also gave a TBIL (6 h) of 0.022 mg/dL, a TC (6 h) of 78.2 mg/dL and a TG (6 h) of 63.8 mg/dL. It also gave a TP (6 h) of 5.5 g/dL, a gamma-GTP (6 h) of 2.4 IU/L and a TERMINAL_BW (9 h) of 217.8 g. It also gave an APTT (9 h) of 22.6 s, a Bas (9 h) of 0% and an Eos (9 h) of 1%. It also gave a Fbg (9 h) of 319.4 mg/dL, a Hb (9 h) of 13.2 g/dL and a Ht (9 h) of 39.5%. For the same molecule, the Lym (9 h) was 73.8%, the MCH (9 h) was 20.6 pg and the MCHC (9 h) was 33.4%. The MCV (9 h) was 61.8 fL, the Mono (9 h) was 2.8% and the Neu (9 h) was 22%. The PT (9 h) was 16.2 s, the Plat (9 h) was 117.1 x10_4/uL and the RBC (9 h) was 638.6 x10_4/ul. The Ret (9 h) was 6.6%, the WBC (9 h) was 87.6 x10_2/uL and the KIDNEY_L (9 h) was 0.9 g. For the same molecule, the KIDNEY_R (9 h) was 1 g, the KIDNEY_TOTAL (9 h) was 1.9 g and the LIVER (9 h) was 8.9 g. For the same molecule, the A/G (9 h) was 1.2, the ALP (9 h) was 1569.2 IU/L and the ALT (9 h) was 39.2 IU/L. The AST (9 h) was 72 IU/L, the BUN (9 h) was 11.6 mg/dL and the CRE (9 h) was 0.1 mg/dL. For the same molecule, the Ca (9 h) was 11 mg/dL, the Cl (9 h) was 107.6 meq/L and the DBIL (9 h) was 0 mg/dL. It also gave a GLC (9 h) of 183.8 mg/dL, an IP (9 h) of 8.9 mg/dL and a K (9 h) of 3.9 meq/L. For the same molecule, the LDH (9 h) was 183.2 IU/L, the Na (9 h) was 141 meq/L and the PL (9 h) was 132.8 mg/dL. For the same molecule, the RALB (9 h) was 3 g/dL, the TBIL (9 h) was 0.022 mg/dL and the TC (9 h) was 74 mg/dL. The TG (9 h) was 54.6 mg/dL, the TP (9 h) was 5.4 g/dL and the gamma-GTP (9 h) was 1.6 IU/L. For the same molecule, the TERMINAL_BW (24 h) was 231.5 g, the APTT (24 h) was 19.5 s and the Bas (24 h) was 0%. The Eos (24 h) was 1%, the Fbg (24 h) was 327.8 mg/dL and the Hb (24 h) was 13.3 g/dL. For the same molecule, the Ht (24 h) was 39.7%, the Lym (24 h) was 80.2% and the MCH (24 h) was 21 pg. It also gave an MCHC (24 h) of 33.5%, an MCV (24 h) of 62.7 fL and a Mono (24 h) of 2%. The Neu (24 h) was 15.2%, the PT (24 h) was 15.6 s and the Plat (24 h) was 124.7 x10_4/uL. The RBC (24 h) was 633.8 x10_4/ul, the Ret (24 h) was 7.6% and the WBC (24 h) was 82.4 x10_2/uL. The KIDNEY_L (24 h) was 1 g, the KIDNEY_R (24 h) was 1 g and the KIDNEY_TOTAL (24 h) was 2 g. For the same molecule, the LIVER (24 h) was 11.2 g, the A/G (24 h) was 1.3 and the ALP (24 h) was 1530.4 IU/L. It also gave an ALT (24 h) of 39.4 IU/L, an AST (24 h) of 67.6 IU/L and a BUN (24 h) of 15 mg/dL. It also gave a CRE (24 h) of 0.1 mg/dL, a Ca (24 h) of 11.1 mg/dL and a Cl (24 h) of 105.8 meq/L. For the same molecule, the DBIL (24 h) was 0 mg/dL, the GLC (24 h) was 189 mg/dL and the IP (24 h) was 7.8 mg/dL. It also gave a K (24 h) of 4.2 meq/L, an LDH (24 h) of 171.2 IU/L and a Na (24 h) of 143.4 meq/L. It also gave a PL (24 h) of 152.4 mg/dL, an RALB (24 h) of 3.1 g/dL and a TBIL (24 h) of 0.006 mg/dL. It also gave a TC (24 h) of 79.2 mg/dL, a TG (24 h) of 145.2 mg/dL and a TP (24 h) of 5.6 g/dL. For the same molecule, the gamma-GTP (24 h) was 1.4 IU/L.

From ChEMBL document CHEMBL3885861, “Open TG-GATES”
